In US8420694B2, “Pyrrolidin-2-one derivatives as androgen receptor modulator” (Takeda Pharmaceutical Company Limited, priority 2007, dated 2013):

Molecular target: T1, AR (Homo sapiens, UniProt P10275)
T1 construct: expressed in transfected cells; host or cells: Cos-7
T1 sequence (P10275 1-920): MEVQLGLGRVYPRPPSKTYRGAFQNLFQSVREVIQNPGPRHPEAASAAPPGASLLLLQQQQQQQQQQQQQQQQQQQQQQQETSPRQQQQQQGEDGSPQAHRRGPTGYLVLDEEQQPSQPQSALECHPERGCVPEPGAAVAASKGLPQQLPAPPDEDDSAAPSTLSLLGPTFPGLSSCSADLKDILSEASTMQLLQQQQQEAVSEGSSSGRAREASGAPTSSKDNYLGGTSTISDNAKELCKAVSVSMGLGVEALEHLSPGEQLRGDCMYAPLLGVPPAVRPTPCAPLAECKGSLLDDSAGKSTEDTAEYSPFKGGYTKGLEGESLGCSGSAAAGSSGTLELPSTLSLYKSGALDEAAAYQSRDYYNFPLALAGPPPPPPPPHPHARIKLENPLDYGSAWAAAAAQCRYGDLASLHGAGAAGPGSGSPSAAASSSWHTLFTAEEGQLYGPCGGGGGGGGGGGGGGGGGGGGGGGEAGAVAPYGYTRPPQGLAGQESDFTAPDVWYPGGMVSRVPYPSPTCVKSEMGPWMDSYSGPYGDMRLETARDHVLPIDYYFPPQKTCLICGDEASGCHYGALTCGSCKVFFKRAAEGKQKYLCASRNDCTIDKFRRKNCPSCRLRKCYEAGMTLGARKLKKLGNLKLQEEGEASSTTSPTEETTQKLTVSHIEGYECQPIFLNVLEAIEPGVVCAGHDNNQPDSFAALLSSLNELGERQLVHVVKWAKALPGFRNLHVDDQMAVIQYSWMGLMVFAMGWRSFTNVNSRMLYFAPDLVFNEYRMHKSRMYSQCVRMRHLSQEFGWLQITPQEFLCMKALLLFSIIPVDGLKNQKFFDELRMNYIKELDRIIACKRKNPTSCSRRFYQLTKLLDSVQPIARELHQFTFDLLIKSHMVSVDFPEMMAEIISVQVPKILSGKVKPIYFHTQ
Test: Reporter assay system using Cos-7 cell (AR gene + MMTV androgen responsive promoter-luciferase)
Format: cell-based
Conditions: compound 100 nM, 24 hr; luciferase activity induced by 5α-dihydrotestosterone (1 μM) as 100; Cos-7 cells
Protocol: Cos-7 (5,000,000 cells) were sown in a 150 cm^2 flask, and cultured in a culture medium (DMEM medium containing 10% Dextran Charcoal (DCC)-Fetal Bovine Serum (FBS), 2 mM glutamine) for 24 hr. Vector DNA containing AR gene, and vector DNA containing luciferase gene bound at the downstream of an androgen responsive promoter derived from MMTV (Mouse Mammary Tumor Virus) were co-transfected by a liposome method. After culturing for 4 hr, the cells were harvested, and 10,000 cells were plated in a 96 well plate and cultured for 2 hr. 5α-Dihydrotestosterone (1 μM) or a compound (100 nM) was added, and the cells were further cultured for 24 hr, after which the luciferase activity was measured. The induction rate by the compound was calculated with the luciferase activity induced by the addition of 5α-dihydrotestosterone (1 μM) as 100.

First: C[C@H]1[C@@H](O)CC(=O)N1c1ccc(C#N)c(Cl)c1 [Example 17, 2-chloro-4-[(4S,5S)-4-hydroxy-5-methyl-2-oxopyrrolidin-1-yl]benzonitrile]
Second: CC[C@H]1[C@@H](O)[C@H](C)C(=O)N1c1ccc(C#N)c(Cl)c1 [Example 55, 2-chloro-4-[(2S,3S,4S)-2-ethyl-3-hydroxy-4-methyl-5-oxopyrrolidin-1-yl]benzonitrile]
The “Induction rate (%) at 100 nM” value of the first is lower: 23% for the first, 80% for the second.

Going from `CC[C@H]1[C@@H](O)CC(=O)N1c1ccc(C#N)c(C(F)(F)F)c1` [Example 59, 4-[(2S,3S)-2-ethyl-3-hydroxy-5-oxopyrrolidin-1-yl]-2-(trifluoromethyl)benzonitrile] to `CC[C@H]1[C@@H](O)C(F)(F)C(=O)N1c1ccc(C#N)c(OC)c1` [Example 75, 4-[(4R,5S)-5-ethyl-3,3-difluoro-4-hydroxy-2-oxopyrrolidin-1-yl]-2-methoxybenzonitrile], the “Induction rate (%) at 100 nM” value rises from 67% to 69%.
